Measured values reported in paper PMC4821612, “Multispecific Organic Cation Transporter 1 (OCT1) from Bos taurus Has High Affinity and Slow Binding Kinetics towards Prostaglandin E2” (PLoS ONE, 2016).

How the values were obtained:
[1] = target: T1, Organic cation transporter 1 (btOCT1) (Bos taurus, UniProt A7MBE0, N107Q/N71Q/N91Q); assay: SPR kinetics, purified btOCT1 over streptavidin-immobilised PGE2-PEG11-Biotin (PEG11-Biotin control); steady-state k […]; format: binding
T1 construct: gene SLC22A1; purified tag-free btOCT1 triple N-glycosylation mutant (NP_001094568.1), expressed in Pichia pastoris
T1 sequence (A7MBE0 1-563 N71Q/N91Q/N107Q): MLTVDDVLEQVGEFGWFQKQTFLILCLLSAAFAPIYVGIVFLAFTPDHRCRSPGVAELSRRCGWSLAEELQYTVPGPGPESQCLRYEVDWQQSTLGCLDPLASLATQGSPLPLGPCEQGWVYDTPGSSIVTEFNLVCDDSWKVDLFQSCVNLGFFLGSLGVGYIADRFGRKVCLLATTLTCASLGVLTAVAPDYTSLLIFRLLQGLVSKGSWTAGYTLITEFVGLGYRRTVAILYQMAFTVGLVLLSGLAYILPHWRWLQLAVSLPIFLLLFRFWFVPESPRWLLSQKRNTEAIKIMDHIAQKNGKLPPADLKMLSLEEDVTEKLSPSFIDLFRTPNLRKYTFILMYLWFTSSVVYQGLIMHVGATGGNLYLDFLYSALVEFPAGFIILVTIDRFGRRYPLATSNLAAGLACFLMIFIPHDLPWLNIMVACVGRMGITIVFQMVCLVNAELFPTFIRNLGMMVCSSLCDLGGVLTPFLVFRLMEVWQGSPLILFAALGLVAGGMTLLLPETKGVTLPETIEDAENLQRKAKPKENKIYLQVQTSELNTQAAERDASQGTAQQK

[2] = target: T2, Organic cation transporter 1 (btOCT1) (Bos taurus, UniProt A7MBE0, N71Q/N91Q/N107Q); assay: fluorescence polarization with purified btOCT1; rhodamine […] alone does not bind; format: binding
T2 construct: gene SLC22A1; purified tag-free btOCT1 triple N-glycosylation mutant (NP_001094568.1), expressed in Pichia pastoris
T2 sequence (A7MBE0 1-563 N71Q/N91Q/N107Q): T1 sequence (A7MBE0 1-563 N71Q/N91Q/N107Q)

Row | Kd [2] [µM] | Compound | Kd [1] [µM]
1 |  | CCCCC[C@H](O)/C=C/[C@H]1[C@H](O)CC(=O)[C@@H]1C/C=C\CCCC(=O)O [Prostaglandin E2] | ~0.1
2 | 0.54 | PGE2-Rhodamine | 
